Assay [1] in a line: Binding affinity at Dopamine D3 receptors in rat striatum by [3H]-spiperone displacement.
The target of assay [2] is D(2) dopamine receptor (Rattus norvegicus) (UniProt P61169). The experiment in a line: Binding affinity at Dopamine D2 receptors in rat striatum by [3H]spiperone displacement.
Assay [3] can be described thus: Stimulation of mitogenesis in Dopamine receptor D3 transfected CHO p-5 cells.

For orientation: Ki means a dissociation constant, usually derived from enzyme kinetics or from competition with a known ligand. The EC50 is the concentration needed to bring the measured effect to its halfway point. High values mean a need for much substance, low ones an effect from little substance.

Molecules are shown by their SMILES.

D(2) dopamine receptor (Rattus norvegicus), sequence (P61169 whole entry, looked up): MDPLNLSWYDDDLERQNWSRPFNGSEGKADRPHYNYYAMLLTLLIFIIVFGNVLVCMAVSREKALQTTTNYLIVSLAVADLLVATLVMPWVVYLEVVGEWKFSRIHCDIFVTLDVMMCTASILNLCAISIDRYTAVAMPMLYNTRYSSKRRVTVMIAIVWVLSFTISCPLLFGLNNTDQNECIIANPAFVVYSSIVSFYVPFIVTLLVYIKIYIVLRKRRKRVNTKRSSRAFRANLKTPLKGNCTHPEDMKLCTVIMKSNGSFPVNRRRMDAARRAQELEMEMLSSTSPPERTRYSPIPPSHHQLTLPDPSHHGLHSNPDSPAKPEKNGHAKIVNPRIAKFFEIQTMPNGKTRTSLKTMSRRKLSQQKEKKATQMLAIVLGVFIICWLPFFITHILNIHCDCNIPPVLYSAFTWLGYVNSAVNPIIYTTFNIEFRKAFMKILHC

`COc1ccc(N2CCN(CCNC(=O)c3cc(Br)c4ccccc4c3OC)CC2)cc1` [4-Bromo-1-methoxy-naphthalene-2-carboxylic acid {2-[4-(4-methoxy-phenyl)-piperazin-1-yl]-ethyl}-amide]: the Ki came out at 731 nM in assay [1] and 5690 nM in assay [2].

`COc1c(C(=O)NCCN2CCN(c3ccccc3Cl)CC2)cc(Br)c2ccccc12` [4-Bromo-1-methoxy-naphthalene-2-carboxylic acid {2-[4-(2-chloro-phenyl)-piperazin-1-yl]-ethyl}-amide]: the EC50 in assay [3] was 83 nM. Besides, the inhibitory constant (Ki) in assay [1] was 39 nM; in assay [2], 517 nM.

For the compound `O=C(NCCN1CCN(c2ccccc2)CC1)c1cc(Br)c2ccccc2c1` [4-Bromo-naphthalene-2-carboxylic acid [2-(4-phenyl-piperazin-1-yl)-ethyl]-amide], the Ki in assay [1] and in assay [2] was > 10000 nM in each case.

Regarding `COc1c(C(=O)NCCN2CCN(c3ccccc3)CC2)cc(Cl)c2ccccc12` [4-Chloro-1-methoxy-naphthalene-2-carboxylic acid [2-(4-phenyl-piperazin-1-yl)-ethyl]-amide], the Ki in assay [1] came to 55 nM; in assay [2], 2530 nM.

`COc1c(C(=O)NCCN2CCN(c3ccccc3[N+](=O)[O-])CC2)cc(Br)c2ccccc12` [4-Bromo-1-methoxy-naphthalene-2-carboxylic acid {2-[4-(2-nitro-phenyl)-piperazin-1-yl]-ethyl}-amide]: the Ki in assay [1] amounted to 24 nM; in assay [2], 151 nM.

In assay [2], `COc1c(C(=O)NCCN2CCN(c3cccc(C)c3C)CC2)cc(Br)c2ccccc12` [4-Bromo-1-methoxy-naphthalene-2-carboxylic acid {2-[4-(2,3-dimethyl-phenyl)-piperazin-1-yl]-ethyl}-amide] returned a Ki of 1170 nM.

In assay [1], `COc1c(C(=O)NCCN2CCN(c3ccc(Cl)cc3)CC2)cc(Br)c2ccccc12` [4-Bromo-1-methoxy-naphthalene-2-carboxylic acid {2-[4-(4-chloro-phenyl)-piperazin-1-yl]-ethyl}-amide] came in with a Ki of 132 nM.

On to `CCOc1c(C(=O)NCCN2CCN(c3ccccc3)CC2)cc(Br)c2ccccc12` [4-Bromo-1-ethoxy-naphthalene-2-carboxylic acid [2-(4-phenyl-piperazin-1-yl)-ethyl]-amide], for which the values for the Ki in assay [1] and in assay [2] were 267 nM and > 10000 nM, respectively.

As for `COc1cccc(N2CCN(CCNC(=O)c3cc(Br)c4ccccc4c3OC)CC2)c1` [4-Bromo-1-methoxy-naphthalene-2-carboxylic acid {2-[4-(3-methoxy-phenyl)-piperazin-1-yl]-ethyl}-amide], the Ki in assay [1] was 652 nM; in assay [2], 1290 nM.

On to `COc1c(C(=O)NCCN2CCN(c3ccc([N+](=O)[O-])cc3)CC2)cc(Br)c2ccccc12` [4-Bromo-1-methoxy-naphthalene-2-carboxylic acid {2-[4-(4-nitro-phenyl)-piperazin-1-yl]-ethyl}-amide], for which the Ki in assay [1] was found to be 731 nM; in assay [2], 5690 nM.

In assay [3], `COc1c(C(=O)NCCN2CCN(c3cccc(Cl)c3)CC2)cc(Br)c2ccccc12` [4-Bromo-1-methoxy-naphthalene-2-carboxylic acid {2-[4-(3-chloro-phenyl)-piperazin-1-yl]-ethyl}-amide] displayed an EC50 of 28 nM. For the same compound, the affinity in assay [2], expressed as Ki, was 703 nM.

Turning to `COc1c(C(=O)NCCN2CCN(c3cccc([N+](=O)[O-])c3)CC2)cc(Br)c2ccccc12` [4-Bromo-1-methoxy-naphthalene-2-carboxylic acid {2-[4-(3-nitro-phenyl)-piperazin-1-yl]-ethyl}-amide], the values for the Ki in assay [1] and in assay [2] were 652 nM and 1290 nM, respectively.

As to `COc1c(C(=O)NCCN2CCN(c3ccccc3)CC2)cc(Br)c2ccccc12` [4-Bromo-1-methoxy-naphthalene-2-carboxylic acid [2-(4-phenyl-piperazin-1-yl)-ethyl]-amide], the values for the Ki in assay [1] and in assay [2] were 24 nM and 1890 nM, respectively.

As for `COc1c(C(=O)NCCN2CCN(c3cccc(C)c3)CC2)cc(Br)c2ccccc12` [4-Bromo-1-methoxy-naphthalene-2-carboxylic acid [2-(4-m-tolyl-piperazin-1-yl)-ethyl]-amide], the Ki turned out to be 339 nM in assay [1] and 1210 nM in assay [2].

`O=C(NCCN1CCN(c2ccccc2)CC1)c1cc(Br)c2ccccc2c1O` [4-Bromo-1-hydroxy-naphthalene-2-carboxylic acid [2-(4-phenyl-piperazin-1-yl)-ethyl]-amide]: the Ki in assay [1] and in assay [2] was > 10000 nM each time.

Take `COc1ccccc1N1CCN(CCNC(=O)c2cc(Br)c3ccccc3c2OC)CC1` [4-Bromo-1-methoxy-naphthalene-2-carboxylic acid {2-[4-(2-methoxy-phenyl)-piperazin-1-yl]-ethyl}-amide]: the Ki in assay [1] was found to be 76 nM; in assay [2], 303 nM.

Regarding `COc1c(C(=O)NCCN2CCN(c3ccc(C)cc3)CC2)cc(Br)c2ccccc12` [4-Bromo-1-methoxy-naphthalene-2-carboxylic acid [2-(4-p-tolyl-piperazin-1-yl)-ethyl]-amide], the figures for the Ki in assay [1] and in assay [2] were 260 nM and 996 nM, respectively.

`COc1c(C(=O)NCCN2CCN(c3ccccc3C)CC2)cc(Br)c2ccccc12` [4-Bromo-1-methoxy-naphthalene-2-carboxylic acid [2-(4-o-tolyl-piperazin-1-yl)-ethyl]-amide]: in assay [3], the EC50 is > 1000 nM. The Ki in assay [1] is 66 nM; in assay [2], 484 nM.

Turning to `COc1c(C(=O)NCCN2CCN(c3ccccc3)CC2)ccc2ccccc12` [1-Methoxy-naphthalene-2-carboxylic acid [2-(4-phenyl-piperazin-1-yl)-ethyl]-amide], the Ki in assay [1] turned out to be 270 nM; in assay [2] it was 7000 nM.

As for `COc1c(C(=O)NCCN2CCN(c3ccccc3)CC2)cc(C#N)c2ccccc12` [4-Cyano-1-methoxy-naphthalene-2-carboxylic acid [2-(4-phenyl-piperazin-1-yl)-ethyl]-amide], the results for the Ki in assay [1] and in assay [2] were 131 nM and 71 nM, respectively.

The record behind these values is BindingDB's records for doi:10.1016/0960-894X(96)00231-4 (1996).
